The test system of test [1] is MCF7, hormone-independent human breast cancer cells. Put plainly: Proliferation assay, MCF7. The format is cell-based. The following applies: MCF7, 96 h, 4 days incubation, crystal violet. From the text:
(§1) Cultivated human tumor cells (MCF7, hormone-independent human breast cancer cells, related to ATCC HTB22; NCI-H460, human non-small-cell lung cancer cells, ATCC HTB-177, HCT 116, human colon cancer cells, ATCC CCL-247; DU 145, hormone-independent human prostate cancer cells, ATCC HTB-81; MaTu-MDR, hormone-independent, multiple pharmaceutical agent-resistant human breast cancer cells, EPO-GmbH, Berlin) were flattened out at a density of about 5000 cells/measuring point, depending on the growth rate of the respective cells, in a 96-well multititer plate in 200 μl of the corresponding growth medium. After 24 hours, the cells of one plate (zero-point plate) were colored with crystal violet (see below), while the medium of the other plates was replaced by fresh culture medium (200 μl), to which the test substances were added in various concentrations (0 μm, as well as in the range of 0.01-30 μm; the final concentration of the solvent dimethyl sulfoxide was 0.5%). The cells were incubated for 4 days in the presence of test substances. The cell proliferation was determined by coloring the cells with crystal violet: the cells were fixed by adding 20 μl/measuring point of an 11% glutaric aldehyde solution for 15 minutes at room temperature. After three washing cycles of the fixed cells with water, the plates were dried at room temperature. The cells were colored by adding 100 μl/measuring point of a 0.1% crystal violet solution (the pH was set at 3 by adding acetic acid). After three washing cycles of the colored cells with water, the plates were dried at room temperature. The dye was dissolved by adding 100 μl/measuring point of a 10% acetic acid solution. The extinction was determined by photometry at a wavelength of 595 nm. The change of cell growth, in percent, was calculated by normalization of the measured values to the extinction values of the zero-point plate (=0%) and the extinction of the untreated (0 μm) cells (=100%).

Test [2] has as its system NCI-H460, human non-small-cell lung cancer cells. Put plainly: Proliferation assay, H460. In kind it is cell-based. The following applies: NCI-H460, 96 h, 4 days incubation, crystal violet.
Description: as §1

Test [3] concerns DU 145, hormone-independent human prostate cancer cells. As to the kind of experiment: Proliferation assay, DU145. Conditions: DU-145, 96 h, 4 days incubation, crystal violet. In kind it is cell-based.
Description: as §1

Another test relates to MaTu-ADR. Put plainly: Proliferation assay, MaTu-ADR. The format is cell-based. The following applies: Homo sapiens, 96 h, MaTu-ADR cells, 4 days incubation, crystal violet.
Description: as §1

In another test the target is T1, CDK2/CycE (Homo sapiens, UniProt P24941).
T1 construct: GST; purchased ProQinase GmbH, Freiburg; host or cells: baculovirus-infected insect cells (Sf9)
Put plainly: CDK2/CycE Kinase Assay. The format is biochemical. The following applies: histone IIIS substrate, 33P-ATP, 15 minutes at 22° C. How it is done:
Recombinant CDK2- and CycE-GST-fusion proteins, purified from baculovirus-infected insect cells (Sf9), were purchased by ProQinase GmbH, Freiburg. Histone IIIs, which was used as a kinase substrate, was purchased by the Sigma Company.
CDK2/CycE (50 ng/measuring point) was incubated for 15 minutes at 22° C. in the presence of various concentrations of test substances (0 μm, as well as within the range of 0.01-100 μm) in assay buffer [50 mmol of tris/HCl, pH 8.0, 10 mmol of MgCl2, 0.1 mmol of Na ortho-vanadate, 1.0 mmol of dithiothreitol, 0.5 μm of adenosine triphosphate (ATP), 10 μg/measuring point of histone IIIS, 0.2 μCi/measuring point of ^33P-gamma ATP, 0.05% NP40, 12.5% dimethyl sulfoxide]. The reaction was stopped by adding EDTA solution (250 mmol, pH 8.0, 14 μl/measuring point).
From each reaction batch, 10 μl was applied to P30 filter strips (Wallac Company), and non-incorporated ^33P-ATP was removed by subjecting the filter strips to three washing cycles for 10 minutes each in 0.5% phosphoric acid. After the filter strips were dried for one hour at 70° C., the filter strips were covered with scintillator strips (MeltiLex™ A, Wallac Company) and baked for one hour at 90° C. The amount of incorporated ^33P (substrate phosphorylation) was determined by scintillation measurement in a gamma-radiation measuring device (Wallac).

For test [4], the target named is T2, VEGF receptor tyrosine kinase-2 (Homo sapiens, UniProt P35968).
T2 construct: GST; made in house; host or cells: baculovirus-infected insect cells (Sf9)
Put plainly: VEGF Receptor-2 Kinase Assay. The format is biochemical. Conditions: poly-(Glu4Tyr) substrate, 33P-ATP, 10 minutes at 22° C.; read-out: VEGF-R2 IC50. The protocol: VEGF Receptor-2 Kinase Assay
Recombinant VEGF receptor tyrosine kinase-2 was purified as a GST fusion protein from baculovirus-infected insect cells (Sf9). Poly-(Glu4Tyr), which was used as a kinase substrate, was purchased by the Sigma Company.
VEGF receptor tyrosine kinase (90 ng/measuring point) was incubated for 10 minutes at 22° C. in the presence of various concentrations of test substances (0 μm, as well as within the range of 0.001-30 μm) in 30 μl of assay buffer [40 mmol of Tris/HCl, […], 10 mmol of MgCl2, 1 mmol of MnCl2, 3 μmol of Na ortho-vanadate, 1.0 mmol of dithiothreitol, 8 μmol of adenosine trisphosphate (ATP), 27 μg/measuring point of poly-(Glu4Tyr), 0.2 μCi/measuring point of 33P-gamma ATP, 1% dimethyl sulfoxide]. The reaction was stopped by adding EDTA solution (250 mmol, pH 7.0, 10 μl/measuring point).
(§2) From each reaction batch, 10 μl was applied to P30 filter strips (Wallac Company), and non-incorporated 33P-ATP was removed by subjecting the filter strips to three washing cycles for 10 minutes each in 0.5% phosphoric acid. After the filter strips were dried for one hour at 70° C., the filter strips were covered with scintillator strips (MeltiLex™ A, Wallac Company) and baked for one hour at 90° C. The amount of incorporated 33P (substrate phosphorylation) was determined by scintillation measurement in a gamma-radiation measuring device (Wallac).

Another test addresses T3, CDK1/CycB (Homo sapiens, UniProt P06493).
T3 construct: GST; purchased ProQinase GmbH, Freiburg; host or cells: baculovirus-infected insect cells (Sf9)
As to the kind of experiment: CDK1/CycB Kinase Assay. The format is biochemical. The following applies: histone IIIS substrate, 33P-ATP, 15 minutes at 22° C. The protocol: Recombinant CDK1- and CycB-GST-fusion proteins, purified from baculovirus-infected insect cells (Sf9), were purchased from ProQinase GmbH, Freiburg. Histone IIIS, used as a kinase substrate, is available commercially from the Sigma Company.
The reaction was stopped by adding EDTA solution (250 mmol, pH 8.0, 14 μl/measuring point).
as §2

T3 sequence (P06493 whole entry): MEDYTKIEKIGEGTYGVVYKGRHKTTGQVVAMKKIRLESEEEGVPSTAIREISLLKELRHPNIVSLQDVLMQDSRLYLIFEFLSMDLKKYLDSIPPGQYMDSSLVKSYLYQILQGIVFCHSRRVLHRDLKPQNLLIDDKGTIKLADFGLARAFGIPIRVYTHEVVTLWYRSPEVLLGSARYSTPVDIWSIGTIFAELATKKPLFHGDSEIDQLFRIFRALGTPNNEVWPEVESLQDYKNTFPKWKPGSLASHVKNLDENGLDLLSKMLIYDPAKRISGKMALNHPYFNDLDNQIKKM
T3 sequence (P14635 whole entry partner): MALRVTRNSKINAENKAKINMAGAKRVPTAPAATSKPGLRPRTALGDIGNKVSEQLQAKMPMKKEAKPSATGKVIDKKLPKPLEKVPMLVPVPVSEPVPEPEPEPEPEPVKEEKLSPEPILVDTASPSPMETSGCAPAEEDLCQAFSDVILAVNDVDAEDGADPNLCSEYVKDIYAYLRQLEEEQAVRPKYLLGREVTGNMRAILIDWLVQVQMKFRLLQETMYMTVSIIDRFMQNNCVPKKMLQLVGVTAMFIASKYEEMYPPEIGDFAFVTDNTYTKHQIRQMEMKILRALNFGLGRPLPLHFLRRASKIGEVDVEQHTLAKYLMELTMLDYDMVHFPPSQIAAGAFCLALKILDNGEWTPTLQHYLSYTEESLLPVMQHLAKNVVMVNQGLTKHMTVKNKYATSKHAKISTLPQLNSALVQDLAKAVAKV
T2 sequence (P35968 20-1356): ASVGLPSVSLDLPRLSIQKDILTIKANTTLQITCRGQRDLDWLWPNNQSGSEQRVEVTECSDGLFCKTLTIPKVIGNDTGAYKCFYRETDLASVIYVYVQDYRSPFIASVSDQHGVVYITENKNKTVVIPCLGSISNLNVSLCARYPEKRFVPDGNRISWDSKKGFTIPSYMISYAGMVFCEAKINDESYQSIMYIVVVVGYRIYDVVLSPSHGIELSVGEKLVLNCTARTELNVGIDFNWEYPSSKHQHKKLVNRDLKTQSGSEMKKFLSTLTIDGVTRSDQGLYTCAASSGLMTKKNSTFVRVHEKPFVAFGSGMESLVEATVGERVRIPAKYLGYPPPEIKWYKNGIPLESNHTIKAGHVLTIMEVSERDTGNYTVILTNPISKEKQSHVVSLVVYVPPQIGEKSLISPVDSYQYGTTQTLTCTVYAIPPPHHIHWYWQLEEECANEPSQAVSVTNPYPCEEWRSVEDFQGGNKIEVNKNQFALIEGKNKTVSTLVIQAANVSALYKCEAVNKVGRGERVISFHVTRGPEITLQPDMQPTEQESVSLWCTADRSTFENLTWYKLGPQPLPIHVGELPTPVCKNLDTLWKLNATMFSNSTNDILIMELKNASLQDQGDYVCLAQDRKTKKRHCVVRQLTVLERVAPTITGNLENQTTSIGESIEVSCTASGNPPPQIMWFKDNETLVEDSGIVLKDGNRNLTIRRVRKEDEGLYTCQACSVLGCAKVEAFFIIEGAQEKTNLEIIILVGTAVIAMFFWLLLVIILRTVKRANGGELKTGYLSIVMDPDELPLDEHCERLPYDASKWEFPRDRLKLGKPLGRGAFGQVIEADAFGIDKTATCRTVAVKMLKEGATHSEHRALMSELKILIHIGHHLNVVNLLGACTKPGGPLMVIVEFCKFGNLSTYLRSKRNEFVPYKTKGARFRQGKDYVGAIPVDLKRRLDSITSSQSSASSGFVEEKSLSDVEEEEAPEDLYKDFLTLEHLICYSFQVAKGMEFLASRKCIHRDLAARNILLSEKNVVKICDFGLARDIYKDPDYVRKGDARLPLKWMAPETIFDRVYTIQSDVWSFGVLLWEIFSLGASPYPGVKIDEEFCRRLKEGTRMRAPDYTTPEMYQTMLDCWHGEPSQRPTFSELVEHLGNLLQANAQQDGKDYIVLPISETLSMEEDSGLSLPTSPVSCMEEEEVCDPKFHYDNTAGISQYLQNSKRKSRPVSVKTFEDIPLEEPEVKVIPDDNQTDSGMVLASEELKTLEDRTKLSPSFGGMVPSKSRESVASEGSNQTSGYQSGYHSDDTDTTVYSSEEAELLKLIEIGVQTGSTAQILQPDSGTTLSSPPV

As to `COc1cc(Nc2ncc(Br)c(N[C@H](C)C(C)(C)O)n2)ccc1S(C)(=N)=O` (mixture of isomers) [Example 1.23, (RS)-S-[4-({5-bromo-4-[(R)-(2-hydroxy-1,2-dimethylpropyl)amino]pyrimidin-2-yl}amino)-2-methoxyphenyl]-S-methyl sulfoximide], the IC50 (commonly the concentration that inhibits the measured activity by half) is 130 nM in test [1]; under 100 nM in test [2]; 100 nM in test [3]; under 100 nM in the test on MaTu-ADR; 6 nM on CDK2/CycE; 75 nM in test [4].

In the case of `C[C@@H](Nc1nc(Nc2ccc(S(=N)(=O)CC3CC3)cc2)ncc1Br)C(C)(C)O` (mixture of isomers) [Example 1.9, (RS)-S-[4-({5-bromo-4-[(R)-(2-hydroxy-1,2-dimethylpropyl)amino]pyrimidin-2-yl}amino)phenyl]-S-(cyclopropylmethyl)sulfoximide], the IC50 in test [1] came to 100 nM; in test [2] it was 110 nM; in test [3] it was 100 nM; with MaTu-ADR it was 100 nM; at CDK2/CycE it was 4 nM; against CDK1/CycB, 5 nM. Further, the IC50 in test [4] turned out to be 49 nM.

Consider `C[C@@H](Nc1nc(Nc2ccc(S(=O)(CCO)=NS(=O)(=O)CC[Si](C)(C)C)cc2)ncc1Br)C(C)(C)O` (mixture of isomers) [Example 1.12, (RS)-S-[4-({5-bromo-4-[(R)-(2-hydroxy-1,2-dimethylpropyl)amino]pyrimidin-2-yl}amino)phenyl]-S-(2-hydroxyethyl)-N-[2-(trimethylsilyl)ethylsulfonyl]sulfoximide], for which the IC50 stood at 200 nM in test [1]; 400 nM in test [2]; 300 nM in test [3]; 2800 nM in the test with MaTu-ADR; 49 nM on CDK2/CycE; 160 nM against CDK1/CycB. In addition, the IC50 in test [4] was found to be 160 nM.

In the case of `CCOC(=O)N=S(=O)(CC)c1ccc(Nc2ncc(Br)c(N[C@H](C)[C@@H](C)O)n2)cc1` (mixture of isomers) [Example 1.36, (RS)-S-[4-({5-bromo-4-[(1R,2R)-(2-hydroxy-1-methylpropyl)amino]pyrimidin-2-yl}amino)phenyl]-N-(ethoxycarbonyl)-S-ethyl sulfoximide], the IC50 stood at 140 nM in test [1]; 120 nM in test [2]; 170 nM in test [3]; 1200 nM in the test on MaTu-ADR; 11 nM on CDK2/CycE; 43 nM on CDK1/CycB. Moreover, in test [4], the IC50 was determined as 92 nM.

In the case of `C[C@@H](Nc1nc(Nc2ccc(S(=N)(=O)C3CC3)cc2)ncc1Br)C(C)(C)O` (mixture of isomers) [Example 1.6, (RS)-S-[4-({5-bromo-4-[(R)-(2-hydroxy-1,2-dimethylpropyl)amino]pyrimidin-2-yl}amino)phenyl]-S-cyclopropylsulfoximide], the concentration for half-maximal inhibition (IC50) is 140 nM in test [1]; under 100 nM in test [2]; under 100 nM in test [3]; under 100 nM in the test on MaTu-ADR; 8 nM against CDK2/CycE; 14 nM against CDK1/CycB.

In the case of `C[C@@H](Nc1nc(Nc2ccc(S(=N)(=O)C3CCCC3)cc2)ncc1Br)C(C)(C)O` (mixture of isomers) [Example 1.11, (RS)-S-[4-({5-bromo-4-[(R)-(2-hydroxy-1,2-dimethylpropyl)amino]pyrimidin-2-yl}amino)phenyl]-S-cyclopentylsulfoximide], the half-maximal inhibitory concentration (IC50) was 100 nM in test [1]; under 100 nM in test [2]; under 100 nM in test [3]; 100 nM with MaTu-ADR; 25 nM at CDK2/CycE; 44 nM at CDK1/CycB.

For `CC(O)C(C)Sc1nc(Nc2ccc(S(C)(=N)=O)cc2)ncc1Br` (racemic) [Example 3.5, (RS)-S-[4-({5-bromo-4-[(RS,RS)-(2-hydroxy-1-methylpropyl)sulfanyl]pyrimidin-2-yl}amino)phenyl]-S-methyl sulfoximide], the IC50 was 120 nM in test [1]; 50 nM in test [2]; 60 nM in test [3]; 30 nM with MaTu-ADR; 8 nM at CDK2/CycE; 17 nM against CDK1/CycB. For the same compound, in test [4], the IC50 amounted to 150 nM.

On to `CCOC(=O)N=S(C)(=O)c1ccc(Nc2ncc(Br)c(N[C@H](C)C(C)(C)O)n2)cc1` (mixture of isomers) [Example 1.31, (RS)-S-[4-({5-bromo-4-[(R)-(2-hydroxy-1,2-dimethylpropyl)amino]pyrimidin-2-yl}amino)phenyl]-N-(ethoxycarbonyl)-S-methyl sulfoximide], for which the IC50 in test [1] is 200 nM; in test [2], 180 nM; in test [3] it was 300 nM; in the test on MaTu-ADR it was 700 nM; against CDK2/CycE, 9 nM; against CDK1/CycB it was 27 nM. The IC50 in test [4] is 140 nM.

Take `CCOC(=O)N=S(=O)(CC)c1ccc(Nc2ncc(Br)c(N[C@H](C)C(C)(C)O)n2)cc1` (mixture of isomers) [Example 1.35, (RS)-S-[4-({5-bromo-4-[(R)-(2-hydroxy-1,2-dimethylpropyl)amino]pyrimidin-2-yl}amino)phenyl]-N-(ethoxycarbonyl)-S-ethyl sulfoximide]: the concentration for half-maximal inhibition (IC50) amounted to 110 nM in test [1]; 120 nM in test [2]; 120 nM in test [3]; 300 nM in the test with MaTu-ADR; 42 nM on CDK2/CycE; 96 nM against CDK1/CycB. The IC50 in test [4] is 94 nM.

Consider `CCOC(=O)N=S(=O)(CC)c1ccc(Nc2ncc(Br)c(O[C@H](C)[C@@H](C)O)n2)cc1` (mixture of isomers) [Example 1.39, (RS)-S-[4-({5-bromo-4-[(1R,2R)-2-hydroxy-1-methylpropoxy]pyrimidin-2-yl}amino)phenyl]-N-(ethoxycarbonyl)-S-ethyl sulfoximide], for which the IC50 amounted to 300 nM in test [1]; 300 nM in test [2]; 300 nM in test [3]; 900 nM with MaTu-ADR; 19 nM on CDK2/CycE; 49 nM at CDK1/CycB.
